Measurements published in patent US10538487B2, “Sulfonylureas and related compounds and use of same” (priority 2015, dated 2020).
Read-outs that look alike come from different tables or passages of the source.

Columns and labels:
[1] = target: NLRP3 inflammasome (Mus musculus, UniProt Q8R4B8); test: Inhibition of IL-1β release, NLRP3 inflammasome activation assay in BMDM; assay type: cell-based
Description: The following assays can be used to determine inhibitory activity of test compounds on the NLRP3 inflammasome using common stimuli such as adenosine triphosphate, nigericin, LeuLeu-OMe or monosodium urate crystals (MSU).
Mouse bone marrow-derived macrophages (BMDM) were derived from bone marrow progenitors isolated from the femurs and tibias of C57BL/6 mice.
BMDM are seeded at 1×10^5/ml. The following day the overnight medium is replaced and cells are stimulated with Ultrapure lipopolysaccharide from Escherichia coli K12 strain (InvivoGen) for 3 h. Medium is removed and replaced with serum free medium (SFM) containing test compound 30 min prior to NLRP3 stimulation. […] ATP can be sourced from Sigma Aldrich, nigericin and MSU from Invivogen and LeuLeu-Ome from Chem-Impex International.
For ELISA and cell death assays cells are seeded in 96 well plates. Supernatants are removed and analysed using ELISA kits according to the manufacturer's instructions (DuoSet® R&D Systems, ReadySetGo!® eBioscience, BD OptEIA™, or Perkin Elmer AlphaLISA®). Cell death is assessed by measurement of LDH release relative to a 100% cell lysis control using the CytoTox96® non-radioactive cytotoxicity assay (Promega).

[2] = target: NLRP3 inflammasome (Homo sapiens, UniProt Q96P20); test: Inhibition of IL-1β release, NLRP3 inflammasome activation assay in HMDM; assay type: cell-based; conditions: inhibition of IL-1β release, class symbols, read-out: Avg. IL-1β IC50 HMDM
Outline: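 Primary human monocyte-derived macrophages from CD14+ buffy-coat monocytes, seeded at 1×10^5/ml. Compound added in serum-free medium 30 min before NLRP3 stimulation (ATP, nigericin, LeuLeu-OMe or MSU). Cytokine in supernatants measured by ELISA or AlphaLISA; cell death by LDH release relative to full lysis.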

[3] = inhibition of IL-1β release, class symbols, read-out: Avg. IL-1β IC50 Murine BMDM
[4] = inhibition of IL-1β release, numeric bounds, read-out: Avg. IL-1β IC50 Murine BMDM

Sequence of NLRP3 inflammasome (Mus musculus, UniProt Q8R4B8) (Q8R4B8 whole entry): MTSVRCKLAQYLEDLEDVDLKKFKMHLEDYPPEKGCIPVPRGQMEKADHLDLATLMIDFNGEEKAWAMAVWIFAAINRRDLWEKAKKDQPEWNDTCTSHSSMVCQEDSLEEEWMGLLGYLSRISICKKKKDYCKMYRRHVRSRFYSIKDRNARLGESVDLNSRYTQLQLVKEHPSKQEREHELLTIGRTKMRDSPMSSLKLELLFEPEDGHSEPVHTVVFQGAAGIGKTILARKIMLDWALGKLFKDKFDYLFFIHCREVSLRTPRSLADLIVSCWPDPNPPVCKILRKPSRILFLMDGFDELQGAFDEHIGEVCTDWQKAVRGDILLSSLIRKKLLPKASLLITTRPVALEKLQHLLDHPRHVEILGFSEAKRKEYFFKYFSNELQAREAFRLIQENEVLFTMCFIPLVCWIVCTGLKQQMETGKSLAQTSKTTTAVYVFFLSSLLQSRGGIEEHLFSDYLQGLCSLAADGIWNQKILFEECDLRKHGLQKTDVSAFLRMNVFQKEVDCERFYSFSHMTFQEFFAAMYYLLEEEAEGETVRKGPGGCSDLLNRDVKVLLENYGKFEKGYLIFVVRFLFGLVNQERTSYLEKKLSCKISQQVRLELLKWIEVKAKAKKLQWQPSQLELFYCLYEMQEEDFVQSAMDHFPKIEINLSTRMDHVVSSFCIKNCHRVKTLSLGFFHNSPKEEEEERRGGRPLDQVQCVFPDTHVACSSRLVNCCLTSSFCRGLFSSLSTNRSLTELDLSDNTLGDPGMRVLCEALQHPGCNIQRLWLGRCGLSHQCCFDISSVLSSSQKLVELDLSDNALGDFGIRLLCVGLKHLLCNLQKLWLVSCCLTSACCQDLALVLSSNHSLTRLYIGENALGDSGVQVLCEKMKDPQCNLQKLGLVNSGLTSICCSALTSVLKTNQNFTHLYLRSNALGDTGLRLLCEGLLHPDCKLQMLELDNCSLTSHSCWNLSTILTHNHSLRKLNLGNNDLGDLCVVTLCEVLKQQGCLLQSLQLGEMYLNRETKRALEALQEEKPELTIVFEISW
Sequence of NLRP3 inflammasome (Homo sapiens, UniProt Q96P20) (Q96P20 whole entry): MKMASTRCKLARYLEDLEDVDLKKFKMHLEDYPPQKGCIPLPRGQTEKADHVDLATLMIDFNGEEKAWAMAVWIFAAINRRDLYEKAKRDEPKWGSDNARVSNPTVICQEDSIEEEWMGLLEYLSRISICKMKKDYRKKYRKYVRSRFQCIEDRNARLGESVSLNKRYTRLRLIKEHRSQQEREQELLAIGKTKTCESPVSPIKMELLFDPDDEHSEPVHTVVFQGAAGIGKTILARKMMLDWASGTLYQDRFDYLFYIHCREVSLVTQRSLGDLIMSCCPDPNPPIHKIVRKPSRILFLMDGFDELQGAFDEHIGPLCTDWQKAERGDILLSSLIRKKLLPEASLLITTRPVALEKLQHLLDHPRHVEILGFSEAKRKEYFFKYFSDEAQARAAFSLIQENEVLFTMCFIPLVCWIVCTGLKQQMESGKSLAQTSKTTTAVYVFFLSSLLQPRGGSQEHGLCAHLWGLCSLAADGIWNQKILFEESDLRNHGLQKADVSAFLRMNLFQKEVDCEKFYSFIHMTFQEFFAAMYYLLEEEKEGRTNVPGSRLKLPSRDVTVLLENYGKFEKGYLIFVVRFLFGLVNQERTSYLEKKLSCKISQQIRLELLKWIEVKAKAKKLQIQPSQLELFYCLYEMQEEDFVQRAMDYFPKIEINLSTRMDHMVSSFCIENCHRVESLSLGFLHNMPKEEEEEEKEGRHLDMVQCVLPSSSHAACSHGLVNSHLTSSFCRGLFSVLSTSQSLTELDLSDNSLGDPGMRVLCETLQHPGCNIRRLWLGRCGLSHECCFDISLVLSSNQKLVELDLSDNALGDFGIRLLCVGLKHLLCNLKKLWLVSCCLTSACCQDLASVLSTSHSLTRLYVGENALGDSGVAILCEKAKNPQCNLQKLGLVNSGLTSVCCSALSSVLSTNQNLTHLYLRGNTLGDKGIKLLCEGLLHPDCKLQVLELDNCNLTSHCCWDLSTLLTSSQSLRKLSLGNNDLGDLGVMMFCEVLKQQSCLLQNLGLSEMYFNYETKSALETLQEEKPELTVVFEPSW

Compound	IC50 [1, 3] [µM]	also measured
Cc1oc(S(=O)(=O)NC(=O)Nc2c3c(cc4c2CCC4)CCC3)cc1C(C)(C)O [N-((1,2,3,5,6,7-hexahydro-s-indacen-4-yl)carbamoyl)-4-(2-hydroxypropan-2-yl)-5-methylfuran-2-sulfonamide]	< 0.1	–
Cc1cc(Cl)cc(C)c1NC(=O)NS(=O)(=O)c1cc(C(C)(C)O)co1 [N-((4-chloro-2,6-dimethylphenyl)carbamoyl)-4-(2-hydroxypropan-2-yl)furan-2-sulfonamide]	< 10	–
O=C(Nc1c2c(cc3c1CCC3)CCC2)NS(=O)(=O)c1cc(C(=O)O)co1 [5-(N-((1,2,3,5,6,7-hexahydro-s-indacen-4-yl)carbamoyl)sulfamoyl)furan-3-carboxylic acid]	< 10	–
COc1ccccc1NC(=O)NS(=O)(=O)c1cc(C(C)(C)O)co1 [4-(2-hydroxypropan-2-yl)-N-((2-methoxyphenyl)carbamoyl)furan-2-sulfonamide]	< 10	–
CCc1noc2ncc(S(=O)(=O)NC(=O)Nc3c(C(C)C)cc(Cl)cc3C(C)C)cc12 [N-((4-chloro-2,6-diisopropylphenyl)carbamoyl)-3-ethylisoxazolo[5,4-b]pyridine-5-sulfonamide]	< 10	–
CC(C)(O)c1coc(S(=O)(=O)NC(=O)Nc2c(C3CC3)cc(Cl)cc2C2CC2)c1 [N-((4-chloro-2,6-dicyclopropylphenyl)carbamoyl)-4-(2-hydroxypropan-2-yl)furan-2-sulfonamide]	< 0.1	–
O=C(Nc1c2c(cc3c1CCC3)CCC2)NS(=O)(=O)c1cn2c(n1)CCC2 [N-((1,2,3,5,6,7-hexahydro-s-indacen-4-yl)carbamoyl)-6,7-dihydro-5H-pyrrolo[1,2-a]imidazole-2-sulfonamide]	< 1	–
CC(C)(O)c1coc(S(=O)(=O)NC(=O)Nc2cccc3c2OCCO3)c1 [N-((2,3-dihydrobenzo[b][1,4]dioxin-5-yl)carbamoyl)-4-(2-hydroxypropan-2-yl)furan-2-sulfonamide]	< 10	–
CC(C)(O)c1coc(S(=O)(=O)NC(=O)Nc2c3c(cc4c2OCC4)CCC3)c1 [4-(2-hydroxypropan-2-yl)-N-((3,5,6,7-tetrahydro-2H-indeno[5,6-b]furan-8-yl)carbamoyl)furan-2-sulfonamide]	< 0.1	–
CC(C)(O)c1coc(S(=O)(=O)NC(=O)Nc2c3c(c(Br)c4c2OCC4)CCC3)c1 [N-((4-bromo-3,5,6,7-tetrahydro-2H-indeno[5,6-b]furan-8-yl)carbamoyl)-4-(2-hydroxypropan-2-yl)furan-2-sulfonamide]	< 0.1	–
O=C(Nc1c2c(cc3c1CCC3)CCC2)NS(=O)(=O)c1ccc([N+](=O)[O-])cc1 [drawing 368]	–	IC50 ([1]; select compounds of the first aspect (Table 10), read-out: BMDM IC50 vs NLRP3): 0.043 µM
Cc1cc(C(=O)NCCc2ccc(S(N)(=O)=O)cc2)no1 [Glisoxepide Precursor, reference compound]	–	IC50 ([1]; commercial compounds (Table 9), read-out: BMDM IC50 vs NLRP3): > 10000 µM
CC(C)(O)c1coc(S(=O)(=O)NC(=O)Nc2c3c(cc4c2OCC4)OCC3)c1 [4-(2-hydroxypropan-2-yl)-N-((2,3,6,7-tetrahydrobenzo[1,2-b:4,5-b′]difuran-4-yl)carbamoyl)furan-2-sulfonamide]	< 1	–
CC(C)c1cc(Cl)cc(C(C)C)c1NC(=O)NS(=O)(=O)c1cccc2nccnc12 [N-((4-chloro-2,6-diisopropylphenyl)carbamoyl)quinoxaline-5-sulfonamide]	< 0.1	–
O=C(Nc1c2c(cc3c1CCC3)CCC2)NS(=O)(=O)c1ccc([N+](=O)[O-])cc1 [N-((1,2,3,5,6,7-hexahydro-s-indacen-4-yl)carbamoyl)-4-nitrobenzenesulfonamide]	< 0.1	–
COc1ccc2cc(S(=O)(=O)NC(=O)Nc3c(C(C)C)cc(Cl)cc3C(C)C)ccc2c1 [N-((4-chloro-2,6-diisopropylphenyl)carbamoyl)-6-methoxynaphthalene-2-sulfonamide]	< 0.1	–
CC(C)c1cc(Cl)cc(C(C)C)c1NC(=O)NS(=O)(=O)c1ccc2c(c1)CCCC2 [N-((4-chloro-2,6-diisopropylphenyl)carbamoyl)-5,6,7,8-tetrahydronaphthalene-2-sulfonamide]	< 0.1	–
CC(C)c1cc(Cl)cc(C(C)C)c1NC(=O)NS(=O)(=O)c1cnc2ccsc2c1 [N-((4-chloro-2,6-diisopropylphenyl)carbamoyl)thieno[3,2-b]pyridine-6-sulfonamide]	< 1	–

Compound	IC50 [1, 3] [µM]	also measured
CC(C)(O)c1coc(S(=O)(=O)NC(=O)Nc2c(C3CC3)cc(Cl)c3c2CCC3)c1 [N-((7-chloro-5-cyclopropyl-2,3-dihydro-1H-inden-4-yl)carbamoyl)-4-(2-hydroxypropan-2-yl)furan-2-sulfonamide]	< 0.1	–
CC(C)(O)c1coc(S(=O)(=O)NC(=O)Nc2cccc3c2OCC3)c1 [N-((2,3-dihydrobenzofuran-7-yl)carbamoyl)-4-(2-hydroxypropan-2-yl)furan-2-sulfonamide]	< 50	–
CC(C)c1cc(Cl)cc(C(C)C)c1NC(=O)NS(=O)(=O)c1ccc2cc(Cl)ccc2c1 [6-chloro-N-((4-chloro-2,6-diisopropylphenyl)carbamoyl)naphthalene-2-sulfonamide]	< 0.1	–
CC(C)(O)c1coc(S(=O)(=O)NC(=O)Nc2c3ccccc3cc3ccccc23)c1 [N-(anthracen-9-ylcarbamoyl)-4-(2-hydroxypropan-2-yl)furan-2-sulfonamide]	< 10	–
CC(C)n1ccc(S(=O)(=O)NC(=O)Nc2c(C(=O)N(C)C)cc(Cl)cc2C2CC2)n1 [5-chloro-3-cyclopropyl-2-(3-((1-isopropyl-1H-pyrazol-3-yl)sulfonyl)ureido)-N,N-dimethylbenzamide]	–	IC50 [1, 4]: > 10 µM
Cc1cc(Cl)cc(C(F)(F)F)c1NC(=O)NS(=O)(=O)c1cc(C(C)(C)O)co1 [N-((4-chloro-2-methyl-6-(trifluoromethyl)phenyl)carbamoyl)-4-(2-hydroxypropan-2-yl)furan-2-sulfonamide]	–	IC50 [1, 4]: > 10 µM
Cc1cc(C)nc(NC(=O)NS(=O)(=O)c2ccn(C(C)C)n2)n1 [N-((4,6-dimethylpyrimidin-2-yl)carbamoyl)-1-isopropyl-1H-pyrazole-3-sulfonamide]	–	IC50 [1, 4]: > 10 µM
CC(C)n1ccc(S(=O)(=O)NC(=O)Nc2nc(C(C)(C)C)cc(C(C)(C)C)n2)n1 [N-((4,6-di-tert-butylpyrimidin-2-yl)carbamoyl)-1-isopropyl-1H-pyrazole-3-sulfonamide]	–	IC50 [1, 4]: > 10 µM
COc1cc(Cl)cc(C(F)(F)F)c1NC(=O)NS(=O)(=O)c1ccn(C(C)C)n1 [N-((4-chloro-2-methoxy-6-(trifluoromethyl)phenyl)carbamoyl)-1-isopropyl-1H-pyrazole-3-sulfonamide]	–	IC50 [1, 4]: > 10 µM
O=C(Nc1cccc2cccnc12)NS(=O)(=O)c1cccc(C2(C(F)(F)F)N=N2)c1 [N-(quinolin-8-ylcarbamoyl)-3-(3-(trifluoromethyl)-3H-diazirin-3-yl)benzenesulfonamide]	–	IC50 [2]: < 10 µM
NC(=O)c1cccc(S(=O)(=O)NC(=O)Nc2c3c(cc4c2CCC4)CCC3)c1 [3-(N-(1,2,3,5,6,7-Hexahydro-s-indacen-4-ylcarbamoyl)sulfamoyl)benzamide]	–	IC50 [2]: < 1 µM
CN(C)Cc1ccc(S(=O)(=O)NC(=O)Nc2c3c(cc4c2CCC4)CCC3)o1 [5-((dimethylamino)methyl)-N-((1,2,3,5,6,7-hexahydro-s-indacen-4-yl)carbamoyl)furan-2-sulfonamide]	–	IC50 [2]: < 0.1 µM
O=C(Nc1cccc2ncccc12)NS(=O)(=O)c1cccc(C2(C(F)(F)F)N=N2)c1 [N-(quinolin-5-ylcarbamoyl)-3-(3-(trifluoromethyl)-3H-diazirin-3-yl)benzenesulfonamide]	–	IC50 [2]: < 50 µM
O=C(Nc1c2c(cc3c1CCC3)CCC2)NS(=O)(=O)c1ccn(CCN2CCCCC2)n1 [N-((1,2,3,5,6,7-hexahydro-s-indacen-4-yl)carbamoyl)-1-(2-(piperidin-1-yl)ethyl)-1H-pyrazole-3-sulfonamide]	–	IC50 [2]: < 10 µM
CC(C)c1cc(Cl)cc(C(C)C)c1NC(=O)NS(=O)(=O)c1cc(C(C)(C)O)n(C)n1 [sodium ((4-chloro-2,6-diisopropylphenyl)carbamoyl)((5-(2-hydroxypropan-2-yl)-1-methyl-1H-pyrazol-3-yl)sulfonyl)amide]	–	IC50 [2]: < 0.1 µM
O=C(Nc1c2c(cc3c1CCC3)CCC2)NS(=O)(=O)c1cccc2cccnc12 [N-((1,2,3,5,6,7-hexahydro-s-indacen-4-yl)carbamoyl)quinoline-8-sulfonamide]	–	IC50 [2]: < 1 µM
[N-]=[N+]=Nc1cccc(S(=O)(=O)NC(=O)Nc2c3c(cc4c2CCC4)CCC3)c1 [3-Azido-N-((1,2,3,5,6,7-hexahydro-s-indacen-4-yl)carbamoyl)benzenesulfonamide]	–	IC50 [2]: < 1 µM
[2H]C([2H])([2H])C(O)(c1cc(S(=O)(=O)NC(=O)Nc2c3c(cc4c2CCO4)CCC3)oc1C)C([2H])([2H])[2H] [4-(2-hydroxypropan-2-yl-1,1,1,3,3,3-d6)-5-methyl-N-((3,5,6,7-tetrahydro-2H-indeno[5,6-b]furan-4-yl)carbamoyl)furan-2-sulfonamide]	–	IC50 [2]: < 0.1 µM
